US10189826B2, “Heterocyclic compounds and methods of use” (Medivation Technologies LLC, priority 2015, dated 2019)
Where two headings read alike, the source gives them in different places.

Experiments:
[1] = test system: SREBP-2 transcriptional activity (SREBP2 cleavage) in HepG2_LSSprom cells; test: Luciferase reporter driven by a SREBP-2 specific promoter in HepG2_LSSprom cells; type: cell-based; conditions: 24 h, read-out: SREBP2 Cleavage (IC50 μM) 24 h
Description: Dose response effects were measured of Compounds on the transcriptional activity of a Luciferase reporter driven by a SREBP-2 specific promoter in HepG2_LSSprom cells.
(§1) HepG2_LSSprom cells (SwitchGear Genomics, cat# C711010L) were cultured in DMEM with 10% of fetal bovine serum (FBS), supplemented with Puromycin (1 μg/mL), 1% Penicillin/Streptomycin (Pen-Strep), 37° C., humidified, 95% air and 5% CO2. Culture media was refreshed every 2 or 3 days. Cells were used between passage number 6-12.
For luminescence assays, cells were plated out at 20,000 cells/well in white 96 well plates in DMEM plus 10% FBS and 1% Pen-Strep without puromycin. After 1 day, cells were treated with Compound by diluting the drug in culture medium without FBS to a final concentration of 0.625, 1.25, 2.5, 3.75, 5 and 10 μM. Drug was prepared by dilutions of 10 mM stock aliquots. As control was used culture medium without FBS plus DMSO. Treatments with Compound were maintained for 6 h, or 24 h, until the luciferase assay was carried out.
After 6 h of treatments with Compound, the luciferase assay was performed. Briefly, the assay solution (buffer+substrate) was prepare just prior to use. To each well 100 μL of assay solution was added. The 96-well plate was then gently mix for 2 min and incubated for 30 min at RT protected from light. The luminescence was read using a Synergy 4 (Biotek) equipment recording luminescence with sensibility set up at 150.
(§2) Five independent experiments were carried out for both luciferase and cytotoxicity assay. In each experiment, three wells were use per condition and the results are represented as means±SEM.
For luciferase assay, Vehicle (no treatment) was taken as 100% of luciferase activity. This value represents the SREBP-2 transcriptional activity for the vehicle condition and was taken as 100% of SREBP-2 cleaved. The percentage for each treatment was calculated normalizing against the vehicle control. The graphics were made using the GraphPad Prism ver. 6.05 software. Half of maximal inhibitory concentration (IC50) of the effect of Compound on SREBP was obtain by nonlinear fit regression of mean normalized values vs. Compound concentration using the log(inhibitor) vs. response−Variable slope (four parameters) tool.

[2] = Cytotoxicity assay (LDH release) in HepG2_LSSprom cells; type: cell-based; conditions: human, HepG2 LSSprom cells, 24 h treatment, LDH release
Description: as §1
For cytotoxicity assays, cells were plated out at 20,000 cells/well in transparent 96 well plates in DMEM plus 10% FBS and 1% Pen-Strep without puromycin. After 1 day, cells were treated with Compound by diluting in culture medium without FBS to a final concentration of 0.625, 1.25, 2.5, 3.75, 5 and 10 μM. Compound was prepared by dilutions of 10 mM stock aliquots. As a negative control culture medium was used without FBS plus DMSO. As maximum LDH release control (Lysis control) a lysis buffer provided by the kit manufacturer was used. Treatments with Compound were maintained for 6 h, or 24 h, in cell culture medium without serum until the cytotoxicity assay was started.
The cytotoxicity assay was performed according to the manufacturer's instructions. As maximum LDH release control (Lysis control) 3 wells per plate were treated with 10 μL of lysis buffer 45 min before the treatment was over. Briefly, after the 6 h, or 24 h, of treatment, 50 μL of media from each well was transferred to a new 96-well plate. To the transferred media, 50 μL of reconstituted substrate mix was added. The plates were covered from light and incubated at RT for 10 min. Then, 50 μL of stop solution was added to each well. The plates were then read using a Synergy 4 (Biotek) equipment recording the absorbance at 490 nm.
as §2
For cytotoxicity assay, Lysis control was taken as 100%/o of LDH release. The vehicle values were taken as basal LDH release and were subtracted to all the treatments (including vehicle itself) having this value as 0% of LDH release. The LDH release for the treatments was calculated respect to the 100% of LDH release of Lysis control normalized against vehicle. All the negatives values were taken as 0% of cytotoxicity. The graphics were made using the Graph Prism ver. 6.05 software.

[3] = 24 h treatment, HepG2_LSSprom cells

Row | Structure (SMILES) | IC50 [1, 3] | IC50 at 24 h [2] | IC50 [1]
1 | CC(C)(C)c1cc(-c2cc(-c3ccc(C(=O)Nc4cccc(O)c4)cc3Cl)cs2)ccn1 [Compound 49, 4-[5-(2-tert-butylpyridin-4-yl)thiophen-3-yl]-3-chloro-N-(3-hydroxyphenyl) benzamide] | > 1 µM | > 10 µM | –
2 | CC(C)N1CCc2cc(-c3csc(-c4ccnc(C(C)(C)C)c4)c3)c(Cl)cc2C1=O [Compound 52, 6-[5-(2-tert-butylpyridin-4-yl)thiophen-3-yl]-7-chloro-2-(propan-2-yl)-1,2,3,4-tetrahydroisoquinolin-1-one] | 1.7 µM | > 10 µM | –
3 | Cc1cc(C)c(CNC(=O)c2ccc(-c3csc(-c4ccnc(C(C)(C)C)c4)c3)c(Cl)c2)c(=O)[nH]1 [Compound 53, 4-[5-(2-tert-butylpyridin-4-yl)thiophen-3-yl]-3-chloro-N-[(4,6-dimethyl-2-oxo-1,2-dihydropyridin-3-yl)methyl]benzamide] | 3.9 µM | > 10 µM | –
4 | CC(C)(C)c1cc(-c2cc(-c3ccc(C(=O)N4CCC(NS(C)(=O)=O)CC4)cc3Cl)cs2)ccn1 [Compound 59, N-(1-{4-[5-(2-tert-butylpyridin-4-yl)thiophen-3-yl]-3-chlorobenzoyl}piperidin-4-yl)methanesulfonamide] | 1.6 µM | > 10 µM | –
5 | CN(C(=O)c1ccc(-c2csc(-c3ccnc(C(C)(C)C)c3)c2)c(Cl)c1)c1ncco1 [Compound 60, 4-[5-(2-tert-butylpyridin-4-yl)thiophen-3-yl]-3-chloro-N-methyl-N-(1,3-oxazol-2-yl)benzamide] | 3.5 µM | > 10 µM | –
6 | CN1C2CCC1CC(NC(=O)c1ccc(-c3csc(-c4ccnc(C(C)(C)C)c4)c3)c(Cl)c1)C2 (stereo not drawn) [Compound 62] | – | > 10 µM | > 3 µM
7 | CCOC(=O)NC1CCN(C(=O)c2ccc(-c3csc(-c4ccnc(C(C)(C)C)c4)c3)c(Cl)c2)CC1 [Compound 63, ethyl N-(1-{4-[5-(2-tert-butylpyridin-4-yl)thiophen-3-yl]-3-chlorobenzoyl}piperidin-4-yl)carbamate] | 2.1 µM | > 10 µM | –
8 | NC1CCCN(C(=O)c2ccc(-c3csc(-c4ccnc(N5CCOCC5)c4)c3)c(Cl)c2)C1 (stereo not drawn) [Compound 65, 1-(3-chloro-4-(5-[2-(morpholin-4-yl)pyridin-4-yl]thiophen-3-yl)benzoyl)piperidin-3-amine] | 2.4 µM | > 10 µM | –
9 | Cc1sc(-c2ccnc(C(C)(C)C)c2)cc1-c1ccc(C(=O)N2CCCC(N)C2)cc1Cl (stereo not drawn) [Compound 66, 1-{4-[5-(2-tert-butylpyridin-4-yl)-2-methylthiophen-3-yl]-3-chlorobenzoyl}piperidin-3-amine] | > 10 µM | > 10 µM | –
10 | Cc1sc(-c2ccnc(C(C)(C)C)c2)cc1-c1ccc(C(=O)Nc2ccccc2)cc1Cl [Compound 67, 4-[5-(2-tert-butylpyridin-4-yl)-2-methylthiophen-3-yl]-3-chloro-N-phenyl benzamide] | – | > 10 µM | 4.7 µM

Continued, in another order:

Row | IC50 [1, 3] | Structure (SMILES) | IC50 at 24 h [2] | IC50 [1]
11 | 0.12 µM | CC(C)(C)c1cc(-c2cc(-c3ccc(C(=O)N4CCC[C@H](O)C4)cc3Cl)cs2)ccn1 [Compound 48b, (S)-(4-(5-(2-(tert-butyl)pyridin-4-yl)thiophen-3-yl)-3-chlorophenyl)(3-hydroxypiperidin-1-yl)methanone] | > 10 µM | –
12 | 1.3 µM | C[C@@H]1CN(C(=O)c2ccc(-c3csc(-c4ccnc(C(C)(C)C)c4)c3)c(Cl)c2)C[C@H](C)O1 [Compound 50, (2R,6S)-4-{4-[5-(2-tert-butylpyridin-4-yl)thiophen-3-yl]-3-chlorobenzoyl}-2,6-dimethylmorpholine] | > 10 µM | –
13 | 0.54 µM | CC(C)(C)c1cc(-c2cc(-c3ccc(C(=O)Nc4ccc(F)cc4)cc3Cl)cs2)ccn1 [Compound 54, 4-[5-(2-tert-butylpyridin-4-yl)thiophen-3-yl]-3-chloro-N-(4-fluorophenyl) benzamide] | > 10 µM | –
14 | 0.36 µM | CC(C)(C)C(=O)NC1CCCN(C(=O)c2ccc(-c3csc(-c4ccnc(C(C)(C)C)c4)c3)c(Cl)c2)C1 (stereo not drawn) [Compound 55, N-(1-{4-[5-(2-tert-butylpyridin-4-yl)thiophen-3-yl]-3-chlorobenzoyl}piperidin-3-yl)-2,2-dimethylpropanamide] | > 10 µM | –
15 | 1 µM | CC(C)(C)c1cc(-c2cc(-c3ccc(C(=O)N4CCCC(NC(=O)NC5CC5)C4)cc3Cl)cs2)ccn1 (stereo not drawn) [Compound 56, 1-(1-{4-[5-(2-tert-butylpyridin-4-yl)thiophen-3-yl]-3-chlorobenzoyl}piperidin-3-yl)-3-cyclopropylurea] | > 10 µM | –
16 | 0.55 µM | CC(C)(C)c1cc(-c2cc(-c3ccc(C(=O)N4CCC(O)CC4)cc3Cl)cs2)ccn1 [Compound 57, 1-{4-[5-(2-tert-butylpyridin-4-yl)thiophen-3-yl]-3-chlorobenzoyl}piperidin-4-ol] | > 10 µM | –
17 | 1.4 µM | CC(C)(C)c1cc(-c2cc(-c3ccc(C(=O)Nc4cccnc4)cc3Cl)cs2)ccn1 [Compound 58, 4-[5-(2-tert-butylpyridin-4-yl)thiophen-3-yl]-3-chloro-N-(pyridin-3-yl)benzamide] | > 10 µM | –
18 | 1.5 µM | CC(C)(C)c1cc(-c2cc(-c3ccc(C(=O)NCC(=O)N4CCOCC4)cc3Cl)cs2)ccn1 [Compound 61, 4-[5-(2-tert-butylpyridin-4-yl)thiophen-3-yl]-3-chloro-N-[2-(morpholin-4-yl)-2-oxoethyl]benzamide] | > 10 µM | –
19 | 0.4 µM | CC(C)(C)OC(=O)NC1CCCN(C(=O)c2ccc(-c3csc(-c4ccnc(N5CCOCC5)c4)c3)c(Cl)c2)C1 (stereo not drawn) [Compound 64, tert-butyl N-[1-(3-chloro-4-{5-[2-(morpholin-4-yl)pyridin-4-yl]thiophen-3-yl}benzoyl)piperidin-3-yl]carbamate] | > 10 µM | –
20 | 0.15 µM | CC(C)(C)c1cc(-c2csc(-c3ccc(C(=O)N4CC[C@H](O)C4)cc3Cl)c2)ccn1 [Compound 68a, (3S)-1-{4-[4-(2-tert-butylpyridin-4-yl)thiophen-2-yl]-3-chlorobenzoyl}pyrrolidin-3-ol] | > 10 µM | –
21 | 0.06 µM | CC(C)(C)c1cc(-c2csc(-c3ccc(C(=O)N4CC[C@@H](O)C4)cc3Cl)c2)ccn1 [Compound 68b, (3R)-1-{4-[4-(2-tert-butylpyridin-4-yl)thiophen-2-yl]-3-chlorobenzoyl}pyrrolidin-3-ol] | > 10 µM | –
22 | 0.015 µM | CC(C)(C)OC(=O)N[C@@H]1CCCN(C(=O)c2ccc(-c3cc(-c4ccnc(C(C)(C)C)c4)cs3)c(Cl)c2)C1 [Compound 69, tert-butyl N-[(3R)-1-{4-[4-(2-tert-butylpyridin-4-yl)thiophen-2-yl]-3-chlorobenzoyl}piperidin-3-yl]carbamate] | > 10 µM | –
23 | 0.08 µM | CN(C(=O)OC(C)(C)C)C1CCCN(C(=O)c2ccc(-c3csc(-c4ccnc(C(C)(C)C)c4)c3)c(Cl)c2)C1 (stereo not drawn) [Compound 70, tert-butyl N-(1-{4-[5-(2-tert-butylpyridin-4-yl)thiophen-3-yl]-3-chlorobenzoyl}piperidin-3-yl)-N-methylcarbamate] | > 10 µM | –
24 | 0.34 µM | CC(C)(C)OC(=O)N1CCCC(NC(=O)c2ccc(-c3csc(-c4ccnc(C(C)(C)C)c4)c3)c(Cl)c2)C1 (stereo not drawn) [Compound 71, tert-butyl 3-{4-[5-(2-tert-butylpyridin-4-yl)thiophen-3-yl]-3-chlorobenzamido}piperidine-1-carboxylate] | > 10 µM | –
